Laboratory results: article PMC10281575, “PfCRT mutations conferring piperaquine resistance in falciparum malaria shape the kinetics of quinoline drug binding and transport” (PLOS Pathogens, 2023)
Values joined by “and” are separate entries in the source; they are usually repeats but may differ in a detail not shown here. Identical values can stand only once.

How the values were obtained:
water-injected oocytes = assay: Radiolabeled drug uptake in water-injected control oocytes (intrinsic drug accumulation); type: cell-based, Xenopus laevis; conditions: 50 μM CQ, pH 6.0; one value per biological replicate
Procedure: (§1) Adult female X. laevis frogs (purchased from NASCO) were anesthetized by submersion in a solution of 0.3% (w/v) 3-amino benzoate methanesulfonate for 15 min. Sections of the ovary were surgically removed and placed in Ca^2+-free ND96 buffer supplemented with 0.1% collagenase D (w/v; Roche), 0.5% BSA (w/v) and 9 mM Na2HPO4 at 18°C for 14–16 h while gently shaking. The oocytes were then washed several times with ND96 buffer (5 mM HEPES, pH 7.5, 96 mM NaCl, 2 mM KCl, 1.8 mM CaCl2, 1 mM MgCl2), supplemented with […] gentamycin. Healthy-looking stage V-VI oocytes were manually selected and randomly grouped for injection. A codon-optimized coding sequence of PfCRT was subcloned into the pSP64T expression vector and subsequently linearized using the restriction endonuclease BamHI or SalI (New England Biolabs GmbH). RNA for injection was transcribed in vitro using the mMESSAGE mMACHINE SP6 Transcription kit (Ambion), diluted with nuclease-free water to a final concentration of 0.6 μg/μL and stored at -80°C. RNA was injected using precision-bore glass capillary tubes (3.5-inch glass capillaries; Drummond Scientific Co.), which were pulled on a vertical puller (P-87 Flaming/Brown micropipette puller, Sutter Instrument Co.) and graduated. The micropipettes were connected to a microinjector (Nanoject II Auto-Nanoliter Injector, Drummond Scientific Co.). Injection was conducted under stereomicroscopic control. 50 nL of nuclease-free water alone (control oocytes) or 50 nL of nuclease-free water containing 30 ng of RNA was injected per oocyte. Injected oocytes were kept for 72 h at 18°C in ND96 buffer with two daily buffer changes before being used for further experiments.
(§2) Drug transport assays were performed as previously described. Briefly, measurements of radiolabeled drug uptake were made over 1 h, unless otherwise specified. […] Where specified, one or more unlabeled drugs were also present at the indicated concentrations. […] The uptake assays were terminated by removing the oocytes from the reaction medium and washing them three times with 2 mL of ice-cold ND96 buffer. Each oocyte was transferred to a separate scintillation vial and lysed by the addition of 200 μL of a 5% SDS solution. The radioactivity in the sample was measured using a liquid scintillation analyser Tri-Carb 4910 TR (PerkinElmer). Water-injected oocytes were analyzed in parallel as a negative control. The buffer from each condition was measured in duplicate in parallel to each experiment to transform counts per minute into pmol of drug. Drug uptake attributable to PfCRT was determined by subtracting the background uptake from water-injected oocytes from that of PfCRT-expressing oocytes. In all cases, at least three independent experiments were performed on oocytes from different frogs, and for each condition in an experiment, measurements were made from 10 oocytes per treatment.

PfCRT^Dd2_F145I = biological target: T1, PfCRT^Dd2_F145I (Plasmodium falciparum, UniProt Q8IBZ9, A220S/F145I/I356T/K76T/M74I/N326S/N75E/Q271E/R371I); assay: Radiolabeled drug uptake in X. laevis oocytes expressing PfCRT^Dd2_F145I; type: cell-based
T1 construct: expressed in transfected cells; host or cells: Xenopus laevis oocytes injected with in vitro transcribed RNA (pSP64T)
T1 sequence (Q8IBZ9 1-424 M74I/N75E/K76T/F145I/A220S/Q271E/N326S/I356T/R371I): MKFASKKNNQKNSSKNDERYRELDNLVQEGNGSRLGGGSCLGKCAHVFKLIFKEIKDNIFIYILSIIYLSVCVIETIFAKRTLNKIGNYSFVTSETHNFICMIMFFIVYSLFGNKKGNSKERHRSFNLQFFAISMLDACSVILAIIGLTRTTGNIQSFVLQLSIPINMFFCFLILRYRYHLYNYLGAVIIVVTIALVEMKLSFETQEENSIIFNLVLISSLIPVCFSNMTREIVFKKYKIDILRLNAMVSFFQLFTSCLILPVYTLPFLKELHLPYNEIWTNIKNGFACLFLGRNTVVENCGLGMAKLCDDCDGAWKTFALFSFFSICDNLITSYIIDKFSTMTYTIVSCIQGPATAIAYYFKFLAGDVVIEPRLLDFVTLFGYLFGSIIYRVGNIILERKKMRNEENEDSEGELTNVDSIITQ
Source text: The two kinetic parameters were derived by fitting the Michaelis-Menten equation to the kinetic data (Table 1).
A codon-optimized coding sequence of the Dd2 isoform of PfCRT (PfCRT^Dd2) was subcloned into the pSP64T expression vector [21]. To generate the necessary mutations to introduce the amino acid substitutions H97Y, F145I, M343L or G353V into the pfcrt sequence, the overlap extension method was used. A region from the 5’-untranslated Xenopus β-globin sequence to the respective 3’ region, containing the full length pfcrt coding sequence, was amplified using the following primer pairs: for the H97Y mutation, numbers 1/4 and 2/3; for the F145I mutation, numbers 1/6 and 2/5; for the M343L mutation, numbers 1/8 and 2/7; and for the G353V mutation, numbers 1/10 and 2/9 (for primers, see S2 Table). Both PCR products were used as template for amplification of the final product using primers number 1/2. The resulting fragment was cloned into the pSP64T expression vector, and the presence of the desired mutation was confirmed by sequencing.
as §1
as §2, with “oocytes.” for “oocytes. In all cases, at least three independent experiments were performed on oocytes from different frogs, and for each condition in an experiment, measurements were made from 10 oocytes per treatment.”

[1] = 50 μM CQ, pH 6.0, total uptake, one value per biological replicate
[2] = 50 μM CQ, pH 6.0, water-injected uptake subtracted, per replicate
[3] = 60 min, pH 6, per biological replicate

## CCN(CC)CCCC(C)Nc1ccnc2cc(Cl)ccc12 (stereo not shown) [CQ, chloroquine]
water-injected oocytes
  water-injected uptake of CQ at 10 min: 3.00 pmol oocyte-1 and 2.99 pmol oocyte-1 and 4.09 pmol oocyte-1 and 3.71 pmol oocyte-1 and 0.95 pmol oocyte-1 and 4.05 pmol oocyte-1 and 0.39 pmol oocyte-1 and 2.80 pmol oocyte-1 and 2.76 pmol oocyte-1
  water-injected uptake of CQ at 30 min: 5.48 pmol oocyte-1 and 5.44 pmol oocyte-1 and 5.22 pmol oocyte-1 and 9.34 pmol oocyte-1 and 5.41 pmol oocyte-1 and 1.36 pmol oocyte-1 and 4.88 pmol oocyte-1 and 5.49 pmol oocyte-1 and 4.65 pmol oocyte-1
  water-injected uptake of CQ at 60 min: 10.84 pmol oocyte-1 and 8.71 pmol oocyte-1 and 14.37 pmol oocyte-1 and 7.57 pmol oocyte-1 and 2.74 pmol oocyte-1 and 9.73 pmol oocyte-1 and 10.77 pmol oocyte-1 and 12.13 pmol oocyte-1 and 9.43 pmol oocyte-1
  water-injected uptake of CQ at 90 min: 10.67 pmol oocyte-1 and 8.60 pmol oocyte-1 and 15.53 pmol oocyte-1 and 9.13 pmol oocyte-1 and 10.08 pmol oocyte-1 and 13.10 pmol oocyte-1 and 8.74 pmol oocyte-1
  water-injected uptake of CQ at 120 min: 15.57 pmol oocyte-1 and 11.64 pmol oocyte-1 and 20.59 pmol oocyte-1 and 11.40 pmol oocyte-1 and 13.60 pmol oocyte-1 and 13.51 pmol oocyte-1 and 14.13 pmol oocyte-1 and 14.32 pmol oocyte-1
  water-injected uptake of CQ at 180 min: 15.62 pmol oocyte-1 and 20.71 pmol oocyte-1 and 19.14 pmol oocyte-1 and 17.36 pmol oocyte-1 and 14.82 pmol oocyte-1 and 15.40 pmol oocyte-1 and 19.29 pmol oocyte-1
PfCRT^Dd2_F145I; 10 µM CQ, single replicates
  PfCRTDd2_F145I-mediated CQ uptake at 10 µM CQ: 1.05 pmol oocyte-1 h-1 and 0.76 pmol oocyte-1 h-1 and 0.87 pmol oocyte-1 h-1
PfCRT^Dd2_F145I; [1]
  PfCRTDd2_F145I uptake of CQ at 10 min: 5.03 pmol oocyte-1 and 4.98 pmol oocyte-1 and 4.51 pmol oocyte-1 and 3.10 pmol oocyte-1 and 1.40 pmol oocyte-1
  PfCRTDd2_F145I uptake of CQ at 30 min: 5.64 pmol oocyte-1 and 11.05 pmol oocyte-1 and 6.90 pmol oocyte-1 and 4.67 pmol oocyte-1 and 6.95 pmol oocyte-1
  PfCRTDd2_F145I uptake of CQ at 60 min: 18.17 pmol oocyte-1 and 7.02 pmol oocyte-1 and 13.61 pmol oocyte-1
  PfCRTDd2_F145I uptake of CQ at 90 min: 12.38 pmol oocyte-1 and 19.74 pmol oocyte-1 and 12.45 pmol oocyte-1 and 15.73 pmol oocyte-1
  PfCRTDd2_F145I uptake of CQ at 120 min: 27.64 pmol oocyte-1 and 15.50 pmol oocyte-1 and 17.12 pmol oocyte-1 and 17.11 pmol oocyte-1
  PfCRTDd2_F145I uptake of CQ at 180 min: 16.65 pmol oocyte-1 and 27.26 pmol oocyte-1 and 23.91 pmol oocyte-1 and 24.65 pmol oocyte-1 and 18.05 pmol oocyte-1
PfCRT^Dd2_F145I; [2]
  PfCRTDd2_F145I-mediated CQ uptake at 10 min: 0.94 pmol oocyte-1 and 1.01 pmol oocyte-1 and 0.80 pmol oocyte-1 and 2.16 pmol oocyte-1 and 0.92 pmol oocyte-1
  PfCRTDd2_F145I-mediated CQ uptake at 30 min: 0.42 pmol oocyte-1 and 1.71 pmol oocyte-1 and 1.49 pmol oocyte-1 and 3.31 pmol oocyte-1 and 2.06 pmol oocyte-1
  PfCRTDd2_F145I-mediated CQ uptake at 60 min: 3.80 pmol oocyte-1 and 4.28 pmol oocyte-1 and 2.84 pmol oocyte-1
  PfCRTDd2_F145I-mediated CQ uptake at 90 min: 3.78 pmol oocyte-1 and 4.21 pmol oocyte-1 and 3.32 pmol oocyte-1 and 5.64 pmol oocyte-1
  PfCRTDd2_F145I-mediated CQ uptake at 120 min: 7.06 pmol oocyte-1 and 4.10 pmol oocyte-1 and 3.52 pmol oocyte-1 and 3.59 pmol oocyte-1
  PfCRTDd2_F145I-mediated CQ uptake at 180 min: 3.40 pmol oocyte-1 and 6.55 pmol oocyte-1 and 4.77 pmol oocyte-1 and 7.29 pmol oocyte-1 and 3.73 pmol oocyte-1
PfCRT^Dd2_F145I; 50 µM CQ, single replicates
  PfCRTDd2_F145I-mediated CQ uptake at 50 µM CQ: 3.80 pmol oocyte-1 h-1 and 4.28 pmol oocyte-1 h-1 and 2.84 pmol oocyte-1 h-1
PfCRT^Dd2_F145I; 100 µM CQ, single replicates
  PfCRTDd2_F145I-mediated CQ uptake at 100 µM CQ: 7.23 pmol oocyte-1 h-1 and 7.33 pmol oocyte-1 h-1 and 8.14 pmol oocyte-1 h-1
PfCRT^Dd2_F145I; 200 µM CQ, single replicates
  PfCRTDd2_F145I-mediated CQ uptake at 200 µM CQ: 12.53 pmol oocyte-1 h-1 and 11.12 pmol oocyte-1 h-1 and 14.18 pmol oocyte-1 h-1
PfCRT^Dd2_F145I; 300 µM CQ, single replicates
  PfCRTDd2_F145I-mediated CQ uptake at 300 µM CQ: 13.73 pmol oocyte-1 h-1 and 16.27 pmol oocyte-1 h-1 and 18.53 pmol oocyte-1 h-1
PfCRT^Dd2_F145I; 400 µM CQ, single replicates
  PfCRTDd2_F145I-mediated CQ uptake at 400 µM CQ: 14.23 pmol oocyte-1 h-1 and 18.19 pmol oocyte-1 h-1 and 22.31 pmol oocyte-1 h-1
PfCRT^Dd2_F145I; 500 µM CQ, single replicates
  PfCRTDd2_F145I-mediated CQ uptake at 500 µM CQ: 19.16 pmol oocyte-1 h-1 and 17.39 pmol oocyte-1 h-1 and 23.99 pmol oocyte-1 h-1
PfCRT^Dd2_F145I; [3]
  PfCRTDd2_F145I-mediated CQ uptake at 10 µM CQ: 1.05 pmol oocyte-1 h-1 and 0.76 pmol oocyte-1 h-1 and 0.87 pmol oocyte-1 h-1
  PfCRTDd2_F145I-mediated CQ uptake at 50 µM CQ: 2.84 pmol oocyte-1 h-1 and 3.80 pmol oocyte-1 h-1 and 4.28 pmol oocyte-1 h-1
  PfCRTDd2_F145I-mediated CQ uptake at 100 µM CQ: 7.23 pmol oocyte-1 h-1 and 7.33 pmol oocyte-1 h-1 and 8.14 pmol oocyte-1 h-1
  PfCRTDd2_F145I-mediated CQ uptake at 200 µM CQ: 12.53 pmol oocyte-1 h-1 and 11.12 pmol oocyte-1 h-1 and 14.18 pmol oocyte-1 h-1
  PfCRTDd2_F145I-mediated CQ uptake at 300 µM CQ: 13.73 pmol oocyte-1 h-1 and 16.27 pmol oocyte-1 h-1 and 18.53 pmol oocyte-1 h-1
  PfCRTDd2_F145I-mediated CQ uptake at 400 µM CQ: 14.23 pmol oocyte-1 h-1 and 18.19 pmol oocyte-1 h-1 and 22.31 pmol oocyte-1 h-1
  PfCRTDd2_F145I-mediated CQ uptake at 500 µM CQ: 19.16 pmol oocyte-1 h-1 and 17.39 pmol oocyte-1 h-1 and 23.99 pmol oocyte-1 h-1
PfCRT^Dd2_F145I; Michaelis-Menten fit, 10-500 μM drug, 60 min, pH 6
  Vmax, maximal velocity of drug transport: 35 ± 2 pmol oocyte^-1 h^-1
PfCRT^Dd2_F145I; versus PfCRT^Dd2
  increase of KM by the F145I substitution: 44%
